Legend:
[1] = Molar enthalpy of transition or fusion; settings: Crystal; DSC
[2] = for Glass transition temperature: DSC
[3] = molar heat capacity at constant pressure; settings: 101.33 kPa, DSC

c1ccc(-c2cccc(-c3ccccc3)c2)cc1 [m-terphenyl]
Settings | Glass transition temperature [°C] | Molar enthalpy of transition or fusion [kcal/mol]
[1] | – | 5.69
[2] | -17 | –

Settings | Normal melting temperature [°C] | molar heat capacity at constant pressure [J/K/mol]
[2], Crystal, DTA | 88 | –
[3], 212 K, Crystal | – | 190.6
[3], 212 K, Glass | – | 193.8
[3], 217 K, Glass | – | 200
[3], 222 K, Crystal | – | 200.7
[3], 222 K, Glass | – | 206.2
[3], 227 K, Glass | – | 212.4
[3], 232 K, Crystal | – | 210.8
[3], 232 K, Glass | – | 218.6
[3], 237 K, Glass | – | 224.8
[3], 242 K, Crystal | – | 220.8
[3], 252 K, Crystal | – | 230.9
[3], 262 K, Crystal | – | 241
[3], 272 K, Crystal | – | 251.1
[3], 280 K, Liquid | – | 364.8
[3], 282 K, Crystal | – | 261.2
[3], 290 K, Liquid | – | 370.5
[3], 292 K, Crystal | – | 271.2
[3], 300 K, Liquid | – | 376.3
[3], 302 K, Crystal | – | 281.3
[3], 310 K, Liquid | – | 382.1
[3], 312 K, Crystal | – | 291.4
[3], 318 K, Crystal | – | 299.5
[3], 320 K, Liquid | – | 387.8
[3], 322 K, Crystal | – | 301.5
[3], 323 K, Crystal | – | 304.2
[3], 328 K, Crystal | – | 308.9
[3], 330 K, Crystal | – | 309.5
[3], 330 K, Liquid | – | 393.6
[3], 333 K, Crystal | – | 313.5
[3], 338 K, Crystal | – | 318.2
[3], 340 K, Liquid | – | 399.3
[3], 343 K, Crystal | – | 322.9
[3], 348 K, Crystal | – | 327.5
[3], 350 K, Liquid | – | 405.1
[3], 360 K, Liquid | – | 410.9
[3], 370 K, Liquid | – | 416.6
[3], 378 K, Liquid | – | 421.2

c1ccc(-c2ccccc2-c2ccccc2)cc1 [o-terphenyl]
Settings | Glass transition temperature [°C]
[2] | -3

[3]
Settings | molar heat capacity at constant pressure [J/K/mol]
212 K, Glass | 181.5
217 K, Glass | 187.8
222 K, Glass | 194
227 K, Glass | 200.3
232 K, Glass | 206.5
237 K, Glass | 212.8
242 K, Glass | 219
280 K, Liquid | 356.2
290 K, Liquid | 363.1
300 K, Liquid | 370
310 K, Liquid | 376.9
320 K, Liquid | 383.8
330 K, Liquid | 390.7
340 K, Liquid | 397.6
350 K, Liquid | 404.4

From the NIST ThermoML archive (doi:10.1016/j.tca.2018.08.015)
